We go through three molecules from US20230174933A1, “METHODS OF MAKING CHIMERIC ANTIGEN RECEPTOR-EXPRESSING CELLS” (Novartis AG, priority 2020, published 2023).

In test [1] the test system is BCMA-CAR. In words: ARM-BCMA CAR expression kinetics in vitro with or without AZT (FACS). It counts as cell-based. Conditions: AZT 30 μM and 100 μM. The procedure:
In contrast to TM which measures lentiviral integration of the CAR transgene after 8-9 days, in the ARM process, the lentiviral transgene may not be fully integrated and truly expressed within 24 h post lentiviral addition, as lentiviral pseudotransduction could occur (Haas D L, et al., (2000) Mol Ther; 2(1):71-80; Galla M, et al., (2004) Mol Cell; 16(2):309-15). […] Flow cytometry (FACS) analyses were performed to detect CAR surface expression at 24 h, 48 h, 72 h, 96 h and 168 h post T cell activation and transduction with the lentiviral vector. In some cases, ARM-BCMA CAR and an aliquot of this product were frozen down immediately upon harvest for additional characterization in other assays.

Test [2] has as its system T cells. In words: T cell expansion with cytokines after αCD3/αCD28 bead stimulation. It counts as cell-based. As to the method: Previously frozen T cells were thawed and contacted with αCD3/αCD28 dynal beads (cell to bead ratio of 1 to 3) in the presence of indicated cytokines at day 0. From day 3, twice more T cell growth media (RPMI1640, 10% FBS, 2 mM L-glutamin, 100 μM non-essential amino acids, 1 mM sodium pyruvate, 10 mM Hepes, 55 μM β-mercaptoethanol, 10% FBS, and 100 U/ml of penicillin-streptomycin) was added to the plate with indicated cytokines (without cytokine, rhIL2 (50 IU/ml, Novartis), IL6 (long/ml, R&D systems), IL7 (long/ml, Peprotech), IL15 (long/ml, Peprotech), and IL21 (long/ml, Peprotech)) at day 3, 5, 6, 9, 12, 15, and 18.
Cells were harvested at indicated time points and then stained with live/dead dye (eFluro780, eBioscience), CD3 (BioLegend, clone#: OKT3), CD4 (BioLegend, clone#: OKT4), CD8 (BD Bioscience, clone#: RPA-T8), CD45RO (BioLegend, clone#: UCHL1), CCR7 (BioLegend, clone#: G043H7), CD27 (BD Horizon, clone#: L128), CD127 (BioLegend, clone#: A019D5), CD57 (BioLegend, clone#: HCD57), CD126 (BioLegend, clon#: UV4), and CD130 (R&D Systems, clone#: 28126) antibodies. The cells were acquired by FACS Fortessa and then FlowJo program was used for data analysis.

Test [3] concerns T cells activated with αCD3αCD28 beads. In words: Fold expansion, cell size and viability of cytokine treated T cells after TCR engagement. The conditions noted are these: T cells activated with αCD3αCD28 beads at day 0 in the presence of cytokine. It counts as cell-based. An excerpt:
FIG. 12: Fold expansion of cytokine treated T cells after TCR engagement. T cells were activated with αCD3αCD28 beads at day 0 in the presence of indicated cytokines and then monitored for cell numbers at indicated time points.
T cells were activated with αCD3αCD28 beads at day 0 in the presence of indicated cytokines and then monitored for cell size (FIG. 13A) and viability (FIG. 13B) at indicated time points.

The target of test [4] is T1, BCMA (TNFRSF17) of the commercial human plasma membrane protein array (human, UniProt Q02223 1-184, limits assumed).
T1 sequence (looked up): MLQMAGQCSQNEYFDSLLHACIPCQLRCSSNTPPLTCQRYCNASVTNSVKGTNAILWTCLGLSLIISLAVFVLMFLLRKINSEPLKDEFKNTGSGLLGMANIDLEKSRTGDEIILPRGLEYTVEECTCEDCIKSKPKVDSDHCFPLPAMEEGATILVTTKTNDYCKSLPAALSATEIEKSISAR
In words: commercial human plasma membrane protein array.

For the molecule `Cc1cn([C@H]2C[C@H](N=[N+]=[N-])[C@@H](CO)O2)c(=O)[nH]c1=O` [AZT, 3′-azido-3′-deoxythymidine], in test [1], the “inhibition of CAR expression” value is given as “effectively inhibit CAR expression”.

For IL15: cytokine, the “expansion of IL6Rβ expressing cells” value in test [2] is listed as “enhanced expansion of IL6Rβ expressing cells”. For the same molecule, the T cell expansion entry in test [2] (αCD3/αCD28 bead stimulated T cells plus cytokine) was “showing the greatest enhancement”. Moreover, in test [3], the cell size entry is reported as “did not affect” and the viability entry was “did not affect”.

B1: anti-human BCMA single chain antibody variable fragment (scFv) (PI61) (scFv)
scFv: QVQLQESGGGVVQPGRSLRLSCAASGFTFSSYGMHWVRQAPGKGLEWVAVISYDGSNKYYADSVKGRFTISRDNSKNTLYLQMNSLRAEDTAVYYCGGSGYALHDDYYGLDVWGQGTLVTVSSGGGGSGGGGSGGGGSQSALTQPASVSGSPGQSITISCTGTSSDVGGYNYVSWYQQHPGKAPKLMIYDVSNRPSGVSNRFSGSKSGNTASLTISGLQAEDEADYYCSSYTSSSTLYVFGSGTKVTVL
notes: also called PI61 scFv
On to B1, for which the binding result in test [4] is recorded as “binds”.
